From paper PMC6830212, “Crystal structure of the putative cyclase IdmH from the indanomycin nonribosomal peptide synthase/polyketide synthase” (IUCrJ, 2019)

Tests used:
IdmH = biological target: T1, IdmH (Streptomyces antibioticus, UniProt C5HV10); assay: 1H-15N HSQC-TROSY chemical shift perturbation titration; type: binding; conditions: 0.2 mM 15N-labelled IdmH, 0-200 uM indanomycin; 20 mM Tris pH 7.3, 50 mM NaCl, 1 mM DTT, 25 C; proposed active-site pocket; proposed (not shown) reaction product
T1 construct: full length (145 residues), N-terminal His6 tag with thrombin site (pET-28a), E. coli BL21(DE3); homodimer

[1] = biological target: the molecule itself; assay: SEC + other: LC/MS; oligomeric state of purified, tag-cleaved wild-type IdmH; conditions of this analysis not told in the text (Supplementary Fig. S4)

Molecule	1H-15N HSQC-TROSY chemical shift perturbation titration (IdmH)	stoichiometry N [1]
CC/C(=C\C=C\[C@@H]1C=C[C@@H]2[C@@H](CC)CC[C@H]2[C@@H]1C(=O)c1ccc[nH]1)[C@@H]1O[C@@H]([C@@H](C)C(=O)O)CC[C@@H]1C [compound 1, indanomycin]	indanomycin can bind to IdmH in the proposed active site	–
wild-type IdmH (full-length putative indane cyclase from the indanomycin NRPS/PKS pathway) (enzyme, UniProt C5HV10 1-145, looked up, IdmH, Streptomyces antibioticus NRRL 8167, full-length idmH gene (ACN69984.1) amplified from genomic DNA; 145 amino acids as printed; Cloned in pET-28a at NdeI; residues of the thrombin site may remain at the N-terminus after cleavage (surmised); also called full-length IdmH; native IdmH; source: E. coli BL21(DE3), purified (HisTrap, thrombin cleavage, HiTrap Q, Superdex 75 SEC); not shown: His6, …) MAHQPSDTIAGLYEAFNSGDLETLRELIAPDAVIHLPGTAGDAEHPPGTPRDREGWLGVWQFTQAFFPDMTATVQDIVQTGDLVATRCVARGTHSIEFMGVPPTGRPFEMTMLNMSRVRDGRIVEHWTISDNVTMLAQLGVKASL	–	2
